Paper PMC4608580, “Synthesis and Evaluation of Biological Activity of Antimicrobial – Pro-Proliferative Peptide Conjugates” (PLoS ONE, 2015)

How the values were obtained:
[1] = test system: immortalized human HaCaT keratinocytes; assay: Cell proliferation assay (MTT); type: cell-based; conditions: 72 h, serum-free DMEM, whole range 1–50 μg/mL, vs. control without peptide, triplicate
Experimental: In our study two kind of cells were used: immortalized human HaCaT keratinocytes (DKFZ Heidelberg, Germany) and primary dermal fibroblasts obtained from 3 healthy donors. Both types of the used cell lines were grown in Dulbecco's modified Eagle's medium (DMEM) (Sigma–Aldrich, Germany), that contained […] of glucose, […] of L-glutamine, sodium pyruvate and sodium bicarbonate. Additionally, medium was supplemented with 10% of FCS (fetal calf serum, Sigma-Aldrich, Germany), 100 U/mL of penicillin and 100 μg/mL streptomycin (Sigma-Aldrich, Germany). The cells were grown in culture dishes (BD, USA) under standard conditions in a humidified atmosphere with 5% CO2 at 37°C and medium was changed every 2 days.
The fibroblasts and keratinocytes were seeded at density of 4500 and 6000 cells per well, respectively, into 96-well plates suspended in a medium supplemented with 10% of FCS. After 24 h the media were exchanged with serum- and antibiotic- free DMEM and tested peptides dissolved in PBS were added yielding final concentration ranging from 1 to 50 μg/mL. Cells were incubated for the next 24 hours, when the medium was exchanged again and fresh portion of peptides (used at the same concentrations as previously) was added. Incubation was continued for the next 48 hours (the overall time of cell exposition to peptide was 72 h). At the end of the experiment cells were treated with 20 μL of MTT (5 mg/mL in PBS). After 3 h at 37°C under 5% CO2 medium was discarded and replaced by 6mM HCl in isopropanol. After 15 min when the purple crystals of formazan were fully solubilized, absorbance was read at 570 nm with a plate reader. The optical density reflects the level of cell viability as MTT is converted in purple formazan product only in the presence of viable mitochondria of the living cells.
Fig 1 Pro-proliferative activity of the tested peptides towards human keratinocytes (A) and fibroblasts (B). Cells were incubated for 72 hours in serum-free DMEM medium in the presence of peptides applied at concentrations of 1,10, 25 and 50 μg/mL, respectively. The data represents results of MTT assay expressed as the percentage of the cell viability in comparison to their control sample (cells incubated in serum-free DMEM without tested peptides), additional positive control corresponds to the cells incubated in the presence of 10% FCS. All experiments were performed independently in triplicate. *P < 0.05, **P < 0.01, ***P < 0.001 vs. control.
In order to evaluate a long-term effect of peptides, experiments were carried out for 72 hours. Before addition of the tested compounds, the cell medium was exchanged for the fresh one not containing any serum or antibiotic.

HaCaT keratinocytes = assay: Cell migration assay (in vitro scratch test); type: cell-based, human; conditions: 25 μg/mL, 24 h, serum-free DMEM, Mitomycin C 5 μg/mL, vs. control without peptide, three independent experiments
Experimental: Fibroblasts and keratinocytes were seeded (5x10^5 cells/well) in 6-well plates. When desired monolayer confluence was reached, cells were starved for 24 hours in serum-free DMEM. The monolayer was scratched then with 200μL-pipette tip. The floating cells and cell debris were removed by double washing in PBS, further replaced with a fresh serum-free medium. Wounded monolayers were incubated for the next 24 h in the presence of tested peptides used at concentration of 25 μg/mL and 5 μg/mL of Mitomycin C (Sigma Aldrich) to prevent proliferation. At the end of the experiment medium was removed and the cells were fixed with 3.7% PFA for 5 min, stained for the next 30 min with 0.05% crystal violet solution, washed several times with distilled water and the plates were left inverted for a couple of minutes to drain. The wounded areas were then photographed by means of Zeiss Observer D1 microscope equipped with camera AxioCam and analyzed with AxioVision software (Carl Zeiss, Germany). Migration activity of the cells treated with the tested peptides were expressed as the percentage of the wounded area with respect to the control probe (cell cultures without any of the peptide), assumed as 100%.
An in vitro scratch test was performed to investigate the effect of the analyzed compounds on keratinocytes and fibroblasts migration. Evaluation was based on the efficiency of the invasion of the monolayer cells to the prewounded area within 24 h after stimulation with the appropriate compound added at concetration of 25μg/mL.
Fig 2 Effect of the peptides on HaCaT keratinocytes and fibroblasts cell migration in the in vitro scratch test. HaCaT cells and fibroblasts were grown in 6-well plates until the 100% confluence was reached, then cells were starved for the next 12 hours in DMEM without 10% FCS and scratched once vertically with a 200μL pipette tip. After being washed two times with sterile PBS, a fresh portion of DMEM medium was added and cells were treated with the tested peptides applied at their optimal doses (25 μg/mL). Migration was analyzed after 24 hours by means of Zeiss Observer D1 microscope, wounding areas were analyzed with AxioVision software and expressed as the percentage of the wound width in comparison to the control sample (cells incubated in DMEM without FCS). Control+ FCS corresponds to the sample with cells incubated in the medium containing 10% FCS and was treated as the additional positive control. Data represent the mean ± SD of three independent experiments. *P < 0.05, **P < 0.01, ***P < 0.001 vs. control.

Which “Effect on HaCaT cell viability/proliferation (MTT), in words” value [1] does the source give for carnosine [reference compound] here?
Its value is “non-toxic”.

What about the “Effect on keratinocyte migration (scratch test), in words” value (HaCaT keratinocytes) of the same substance?
Its value is “best results”.
